Experimental data published in patent US6893830B1, “Method of screening oxysterol activation of LXRα” (The Board of Regents of the University of Texas System, priority 1996, dated 2005).

Target: T1, LXRα (Homo sapiens, UniProt Q13133)
T1 sequence (Q13133 1-447): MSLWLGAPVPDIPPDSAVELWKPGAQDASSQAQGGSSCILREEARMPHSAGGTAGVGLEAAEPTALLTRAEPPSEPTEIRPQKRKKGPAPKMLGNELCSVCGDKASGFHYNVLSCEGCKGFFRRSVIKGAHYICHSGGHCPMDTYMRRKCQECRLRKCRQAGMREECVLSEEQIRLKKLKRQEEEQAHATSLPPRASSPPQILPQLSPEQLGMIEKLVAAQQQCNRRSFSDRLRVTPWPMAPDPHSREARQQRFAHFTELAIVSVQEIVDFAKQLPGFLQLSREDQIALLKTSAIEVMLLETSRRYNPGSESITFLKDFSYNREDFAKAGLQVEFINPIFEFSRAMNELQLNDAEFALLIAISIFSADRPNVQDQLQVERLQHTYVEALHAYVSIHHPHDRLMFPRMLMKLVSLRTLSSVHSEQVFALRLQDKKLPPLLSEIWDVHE
T1 sequence (P19793 1-462 partner): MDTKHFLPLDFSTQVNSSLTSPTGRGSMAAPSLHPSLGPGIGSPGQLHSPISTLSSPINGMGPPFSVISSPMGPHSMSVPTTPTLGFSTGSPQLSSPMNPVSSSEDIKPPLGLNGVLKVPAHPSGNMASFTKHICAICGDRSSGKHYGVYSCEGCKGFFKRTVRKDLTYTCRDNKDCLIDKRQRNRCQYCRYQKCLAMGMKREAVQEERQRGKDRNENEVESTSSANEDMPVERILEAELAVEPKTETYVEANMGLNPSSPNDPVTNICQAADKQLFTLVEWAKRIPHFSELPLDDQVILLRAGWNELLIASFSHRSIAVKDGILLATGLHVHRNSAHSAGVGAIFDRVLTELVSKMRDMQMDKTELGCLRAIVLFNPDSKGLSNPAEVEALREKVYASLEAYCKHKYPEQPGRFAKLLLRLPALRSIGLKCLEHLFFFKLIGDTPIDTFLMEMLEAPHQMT
Assay: LXRα cotransfection assay with TK-LXREx3-LUC reporter in CV-1 cells
Format: cell-based
Set-up: expressed in transfected cells; host or cells: CV-1 monkey kidney cells
Method: FIG. 1 Human LXRα is activated by gonad sterols. (A) Transactivation of LXRα ligand binding domain (LBD) with testis extract. CV-1 cells were cotransfected with a GAL4 responsive luciferase reporter plasmid and an expression plasmid encoding no receptor or a chimeric receptor composed of the GAL4 DNA binding domain fused to the LXRα ligand binding domain (LBD) (GAL4-LXRα)^3. After transfection, cells were treated with ethanol (ETOH) or 1% of the concentrated testis extract. (B) Transactivation of LXRα with follicular fluid meiosis activating substance (FF-MAS). CV-1 cells were cotransfected with an LXRα responsive reporter plasmid and the receptor expression plasmids for LXRα alone or with RXRα. After transfection, cells were treated with ETOH or […] FF-MAS.
FIG. 2 LXRα is activated by a specific subset of oxysterols. (A) Specificity of LXRα activators. Shown is a representative group from 70 compounds evaluated for LXRα activity (10 μM) in cotransfection assays as described in FIG. 1B. […] (B) The the structure-activity relationship of LXRα activators. Data compiled from FIG. 2A and other experiments (not shown) reveal that the position of the hydroxyl on the cholesterol backbone is a determinant of LXRα activity. […] Dose response curves for LXRα activators were generated in CV-1 cell cotransfection assays as described in FIG. 1B.
Organic extraction of breeding bull testis was performed as described^6. Briefly, 12 grams of lyophilized testis was extracted with N-heptane and lipids were concentrated by roto-evaporation. Aliquots representing 1% of this material were assayed. FF-MAS was synthesized as described^18. Transient transfections in CV-1 monkey kidney cells were performed in triplicate in 48-well plates as described^3 with media containing 5% cabosil-treated calf bovine serum.
Transfections were performed in FIG. 1A using 80 ng of TK-MH100x4-LUC reporter and 30 ng of CMX-GAL4-hLXRα expression plasmids per well; and in FIG. 1B using 50 ng of TK-LXREx3-LUC reporter and 25 ng of CMX-hLXRa alone or with 25 ng CMX-hRXRa expression plasmids per well. Candidate ligands were dissolved in ethanol and added 8 hours post-transfection. As an internal standard, 50 ng of CMX-β gal was included in all transfections. All plasmid constructs and determinations of luciferase and β-galactosidase activities have been described^3. To construct CMX-LXRα, the hLXRα cDNA insert was excised from the plasmid pXR2DRV (Willy, et al., 1995, Genes Dev. 9: 1033-1045) with Kpnl and BamHI and was ligated into the expression vector CMX. CMX-βgal was constructed by ligating the β-galactosidase gene into the expression vector CMX. Chimeric Gal4-receptor expression plasmid (CMX-GAL4-LXRα) was constructed by first ligating the GAL4 portion of pSC424 (Sadowski, I. and M. Ptashne, 1989, Nucleic Acids Res. 19: 7539-7530) into the HindIII/SacI sites of pCMX (Umesono, et al., 1991, Cell 65: 1255-1266) to create pCMX-GAL4. This vector contains the CMV promoter fused to the coding sequence for GAL4 (1-147), followed by inframe polylinker cloning sites and translational stop codons. The cDNAs encoding the ligand-binding domain (LBD) of hLXRα (amino acids 166-447) was then ligated into the polylinker to create CMX-GAL4-LXRα.
Reporter plasmids for these studies were constructed by ligating the appropriate oligonucleotides into the HindIII site of the TK-LUC vector to create TK-LXREx3-LUC, TK-MH100x4-LUC (Kang, T., et al., 1993, J. Biol Chem. 268: 9629-9635). The sense strand of the LXRE oligonucleotide used to construct the reporter plasmid TK-LXREx3-LUC was 5′agctt[…]3′ (SEQ. ID. NO. 1). All constructs were verified by sequencing. Data are presented as relative light units (RLUs) and represent the mean of triplicate assays±standard error. […]

## CC(C)CC[C@@H](O)[C@@H](C)[C@H]1CC[C@H]2[C@@H]3CC=C4C[C@@H](O)CC[C@]4(C)[C@H]3CC[C@]12C [22(R)-hydroxycholesterol]
  EC50: 1.5 µM
